Experimental data reported in patent US11365195B2, “Atypical inhibitors of monoamine transporters; method of making; and use thereof” (THE UNITED STATES OF AMERICA, AS REPRESENTED BY THE …, priority 2017, dated 2022).

What was measured:
DAT = biological target: T1, DAT (Rattus norvegicus, UniProt P23977); assay: DAT radioligand binding in rat striatum ([3H]-WIN35,428 competition); conditions: for Ki: rat striatum membranes, [3H]-WIN35,428, mean ± SEM, read-out: DAT (rat striatum) Ki ± SEM; for SERT/DAT: ratio of SERT Ki to DAT Ki
T1 construct: 100 μl of tissue preparation (1.5 mg of brain striatum membranes per well); tissue Bioreclamation IVT (Hicksville, N.Y.); host or cells: male Sprague-Dawley rat brain striatum membranes
T1 sequence (P23977 whole entry): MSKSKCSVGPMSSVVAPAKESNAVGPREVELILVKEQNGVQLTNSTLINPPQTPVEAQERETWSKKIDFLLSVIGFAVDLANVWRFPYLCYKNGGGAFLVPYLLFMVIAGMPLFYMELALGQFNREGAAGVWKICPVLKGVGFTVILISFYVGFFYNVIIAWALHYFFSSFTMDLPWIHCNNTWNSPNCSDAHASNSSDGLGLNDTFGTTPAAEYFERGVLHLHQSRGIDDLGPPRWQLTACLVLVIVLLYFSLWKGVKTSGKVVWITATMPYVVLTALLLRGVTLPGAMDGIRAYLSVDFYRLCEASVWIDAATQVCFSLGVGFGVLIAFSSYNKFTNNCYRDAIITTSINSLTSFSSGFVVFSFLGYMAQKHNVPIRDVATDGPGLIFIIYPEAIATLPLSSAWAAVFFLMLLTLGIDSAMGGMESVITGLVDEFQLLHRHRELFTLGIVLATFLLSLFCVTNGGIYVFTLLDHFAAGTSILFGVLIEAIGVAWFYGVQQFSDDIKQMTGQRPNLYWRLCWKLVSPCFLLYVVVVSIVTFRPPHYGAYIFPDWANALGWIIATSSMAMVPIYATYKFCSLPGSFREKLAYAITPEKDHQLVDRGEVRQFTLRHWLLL
Protocol: (§1) Binding affinities of the analogue compounds were evaluated at the DAT and SERT in rat brain membranes, and sigma-1 in guinea pig brain membranes according to the following protocols.
DAT Radioligand Binding in Rat Striatum
The tissue was centrifuged at 20,000 rpm for 10 min at 4° C. The pellet was suspended in cold buffer and centrifuged again using the same settings. The resulting pellet was resuspended in cold buffer at a concentration of 15 mg/mL OWW (original wet weight). On test day, all test compounds were freshly dissolved in 30% DMSO and 70% H2O to a stock concentration of 1 mM or 100 μM When necessary, to assist the solubilization of compounds, 10 μl of glacial acetic acid was added along with the DMSO (in place of 10 μl final H2O volume). Each test compound was then diluted into 10 half-log serial dilutions using 30% DMSO vehicle. […] Non-specific binding was determined using […] Indatraline and total binding was determined with 30% DMSO vehicle. The reaction was started with the addition of the tissue. […] The filters were washed 3 times with 3 mL (3×1 mL/well) of ice cold binding buffer. […] These analyses were performed using GraphPad Prism version 6.00 for Macintosh (GraphPad Software, San Diego, Calif.).

[1] = Phase I metabolic stability in rat liver microsomes; assay type: in vitro ADME; conditions: for Phase I in Liver Microsomes, Negative Control: rat liver microsomes lacking NADPH; for Phase I in Liver Microsomes, Rat: with NADPH, 10 μM compound, 0.5 mg/mL microsomes; for stability to Phase I metabolism (in words): rat liver microsomes fortified with NADPH
Protocol: Methods: Phase I metabolic stability assays were conducted in rat liver microsomes. For phase I metabolism, the reactions were carried out with 100 mM potassium phosphate buffer, pH 7.4, in the presence of NADPH regenerating system (1.3 mM NADPH, 3.3 mM glucose 6-phosphate, 3.3 mM MgCl2, 0.4 U/mL glucose-6-phosphate dehydrogenase, […] sodium citrate). Reactions in triplicate were initiated by addition of the liver microsomes to the incubation mixture (compound final concentration was 10 μM; 0.5 mg/mL microsomes). Compound disappearance was monitored via LC/MS/MS. […] The total run time for each analyte was 5.0 min.

σ1R = biological target: T2, σ1R (Cavia porcellus, UniProt Q60492); assay: σ1R radioligand binding in guinea pig cortex ([3H]-(+)-Pentazocine competition); conditions: for σ1/DAT: ratio of σ1 to DAT affinity values; for σ1/SERT: ratio of σ1 to SERT affinity values
T2 construct: tissue BioReclamation IVT (Hicksville, N.Y.); host or cells: male Hartley guinea pig brain cortex membranes
T2 sequence (Q60492 whole entry): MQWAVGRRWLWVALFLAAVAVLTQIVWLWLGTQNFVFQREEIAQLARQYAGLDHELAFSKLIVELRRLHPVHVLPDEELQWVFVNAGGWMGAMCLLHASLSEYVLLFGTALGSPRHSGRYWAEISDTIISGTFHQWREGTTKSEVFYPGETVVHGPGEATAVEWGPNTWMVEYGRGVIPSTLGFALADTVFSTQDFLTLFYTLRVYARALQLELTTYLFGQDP
Protocol: as §1
σ1R Radioligand Binding in Guinea Pig Cortex
Male Hartley guinea pig cortices were dissected from freshly harvested brains (shipped cold in PBS buffer from BioReclamation IVT (Hicksville, N.Y.)) and frozen at −80° C. for future use. […] The supernatant was collected in a clean tube and the pellet re-suspended in 10 ml of cold buffer and centrifuged again (˜1,200 rpm) for 10 min at 4° C. […] The final pellet was suspended in ice-cold binding buffer at 50 mg/ml concentration. […] All test compounds were freshly dissolved in 30% DMSO and 70% H2O to a stock concentration of 1 mM or 100 μM. When necessary, to assist the solubilization of compounds, 10 μl of glacial acetic acid was added along with the DMSO (in place of 10 μl final H2O volume). Each test compound was then diluted into 10 half-log serial dilutions using 30% DMSO as the vehicle. […] Nonspecific binding was determined using either 10 μM PRE084 or 10 μM (+)-Pentazocine and total binding was determined with 30% DMSO vehicle (3% DMSO final concentration). […] The filters were washed 3 times with 3 ml (3×1 ml/well) of ice cold binding buffer.

SERT = biological target: T3, SERT (Rattus norvegicus, UniProt P31652); assay: SERT radioligand binding in rat midbrain ([3H]-Citalopram competition); conditions: rat midbrain/brain stem membranes, [3H]-Citalopram, mean ± SEM; read-out: SERT (rat mid-brain-stem) Ki ± SEM
T3 construct: 100 μl of tissue preparation (2 mg of brain stem membranes per well); tissue Bioreclamation IVT (Hicksville, N.Y.); host or cells: male Sprague-Dawley rat brain stem membranes
T3 sequence (P31652 whole entry): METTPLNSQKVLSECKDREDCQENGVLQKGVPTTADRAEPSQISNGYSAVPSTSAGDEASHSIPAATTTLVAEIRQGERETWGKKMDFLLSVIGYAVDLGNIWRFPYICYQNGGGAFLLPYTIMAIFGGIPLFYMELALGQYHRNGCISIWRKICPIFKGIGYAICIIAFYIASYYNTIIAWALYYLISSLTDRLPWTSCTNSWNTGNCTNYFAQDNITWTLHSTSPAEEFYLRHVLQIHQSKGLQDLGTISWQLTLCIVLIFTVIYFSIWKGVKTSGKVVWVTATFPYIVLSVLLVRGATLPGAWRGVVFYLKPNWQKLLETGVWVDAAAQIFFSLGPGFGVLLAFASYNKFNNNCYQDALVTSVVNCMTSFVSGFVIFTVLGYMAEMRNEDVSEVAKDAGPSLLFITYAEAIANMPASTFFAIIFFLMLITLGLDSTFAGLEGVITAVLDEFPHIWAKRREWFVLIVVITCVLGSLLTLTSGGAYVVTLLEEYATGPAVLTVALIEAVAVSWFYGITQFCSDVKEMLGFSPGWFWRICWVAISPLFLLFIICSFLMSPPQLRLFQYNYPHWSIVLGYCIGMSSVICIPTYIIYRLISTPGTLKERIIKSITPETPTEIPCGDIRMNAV
Protocol: as §1
SERT Radioligand Binding in Rat Midbrain
The tissue was centrifuged at 20,000 rpm for 10 min at 4° C. The pellet was suspended in cold buffer and centrifuged again using the same settings. The resulting pellet was resuspended in cold buffer at a concentration of 20 mg/mL OWW (original wet weight). On test day, all test compounds were freshly dissolved in 30% DMSO and 70% H2O to a stock concentration of 1 mM or 100 μM. When necessary, to assist the solubilization of compounds, 10 μl of glacial acetic acid was added along with the DMSO (in place of 10 μl final H2O volume). Each test compound was then diluted into 10 half-log serial dilutions using 30% DMSO vehicle. […] Non-specific binding was determined using […] Fluoxetine HCl and total binding was determined with 30% DMSO vehicle. The reaction was started with the addition of the tissue. All compound dilutions were tested in triplicate and the reaction incubated for 60 min at room temperature. The reaction was terminated by filtration through Perkin Elmer Uni-Filter-96 GF/B, presoaked for 60 min in 0.3% polyethylenimine, using a Brandel 96-Well Plates Harvester Manifold (Brandel Instruments, Gaithersburg, Md.). The filters were washed 3 times with 3 mL (3×1 mL/well) of ice cold binding buffer. […] These analyses were performed using GraphPad Prism version 6.00 for Macintosh (GraphPad Software, San Diego, Calif.).

C[C@@H]1CN(CCSC(c2ccc(F)cc2)c2ccc(F)cc2)C[C@H](C)N1CC(O)Cc1ccccc1 (stereo partly drawn) [RDS03-095, 1-((2S,6R)-4-(2-((bis(4-fluorophenyl)methyl)thio)ethyl)-2,6-dimethylpiperazin-1-yl)-3-phenylpropan-2-ol]
Ki (DAT): 2 ± 0.15 nM
SERT/DAT (DAT): 800.00
Phase I in Liver Microsomes, Negative Control ([1]; 0 min): 100%
Phase I in Liver Microsomes, Rat ([1]; 0 min): 100%
Phase I in Liver Microsomes, Negative Control ([1]; 30 min): 117%
Phase I in Liver Microsomes, Rat ([1]; 30 min): 42%
Phase I in Liver Microsomes, Negative Control ([1]; 60 min): 125%
Phase I in Liver Microsomes, Rat ([1]; 60 min): 10%
stability to Phase I metabolism (in words) [1]: susceptibility
σ1/DAT (σ1R): 7.60
σ1/SERT (σ1R): 0.010
Ki (SERT): 1600 ± 152 nM

OC(CN1CCC2(CCN(CCSC(c3ccc(F)cc3)c3ccc(F)cc3)CC2)C1)c1ccccc1 (stereo not shown) [RDS04-002]
Ki (DAT): 125 ± 9.7 nM
SERT/DAT (DAT): 0.99
Phase I in Liver Microsomes, Negative Control ([1]; 0 min): 100%
Phase I in Liver Microsomes, Rat ([1]; 0 min): 100%
Phase I in Liver Microsomes, Negative Control ([1]; 30 min): 128%
Phase I in Liver Microsomes, Rat ([1]; 30 min): 100%
Phase I in Liver Microsomes, Negative Control ([1]; 60 min): 125%
Phase I in Liver Microsomes, Rat ([1]; 60 min): 100%
σ1/DAT (σ1R): 0.36
σ1/SERT (σ1R): 0.37
Ki (SERT): 124 ± 38.2 nM

CC(O)CN1[C@H](C)CN(CC[S+]([O-])C(c2ccc(F)cc2)c2ccc(F)cc2)C[C@@H]1C (stereo partly drawn) [RDS04-010, 1-((2S,6R)-4-(2-((Bis(4-fluorophenyl)methyl)sulfinyl)ethyl)-2,6-dimethylpiperazin-1-yl)propan-2-ol]
Ki (DAT): 245 ± 49.7 nM
SERT/DAT (DAT): 77.55
Phase I in Liver Microsomes, Negative Control ([1]; 0 min): 100%
Phase I in Liver Microsomes, Rat ([1]; 0 min): 100%
Phase I in Liver Microsomes, Negative Control ([1]; 30 min): 130%
Phase I in Liver Microsomes, Rat ([1]; 30 min): 115%
Phase I in Liver Microsomes, Negative Control ([1]; 60 min): 108%
Phase I in Liver Microsomes, Rat ([1]; 60 min): 95%
σ1/DAT (σ1R): 1.29
σ1/SERT (σ1R): 0.017
Ki (SERT): 19000 ± 2550 nM

C[C@@H]1CN(CC[S+]([O-])C(c2ccc(F)cc2)c2ccc(F)cc2)C[C@H](C)N1CC(O)Cc1ccccc1 (stereo partly drawn) [RDS04-011, 1-((2S,6R)-4-(2-((Bis(4-fluorophenyl)methyl)sulfinyl)ethyl)-2,6-dimethylpiperazin-1-yl)-3-phenylpropan-2-ol]
Ki (DAT): 6.78 ± 2.97 nM
SERT/DAT (DAT): 377.58
Phase I in Liver Microsomes, Negative Control ([1]; 0 min): 100%
Phase I in Liver Microsomes, Rat ([1]; 0 min): 100%
Phase I in Liver Microsomes, Negative Control ([1]; 30 min): 132%
Phase I in Liver Microsomes, Rat ([1]; 30 min): 58%
Phase I in Liver Microsomes, Negative Control ([1]; 60 min): 106%
Phase I in Liver Microsomes, Rat ([1]; 60 min): 26%
stability to Phase I metabolism (in words) [1]: susceptibility
σ1/DAT (σ1R): 11.12
σ1/SERT (σ1R): 0.029
Ki (SERT): 2560 ± 181 nM
